Columns and labels:
rat [1] = details: Combined chronic toxicity/carcinogenicity; fischer; Oral; Feed; dose end: 365 day; group: systemic; systemic / pathology gross / full gross necropsy / adenoma
mouse [2] = details: Combined chronic toxicity/carcinogenicity; other; Oral; Feed; dose end: 365 day; group: systemic; systemic / pathology gross / full gross necropsy / lymphoma malignant
mouse [3] = details: Subchronic oral toxicity in rodents, b6c3f1, Feed, dose end: 6 week, group: systemic
rat [4] = details: Multigenerational reproductive toxicity study, sprague dawley, Oral, Feed, dose end: 2 generation
mouse [5] = details: Carcinogenicity; b6c3f1; Oral; Feed; dose end: 78 week; group: systemic; systemic / in life observation / mortality / mortality
mouse [6] = details: Multigenerational reproductive toxicity study, other, Oral, Feed, dose end: 5 generation
rat [7] = details: Multigenerational reproductive toxicity study, sprague dawley, Oral, Feed, dose end: 2 generation; remark: listed apart in the source
dog = details: Multigenerational reproductive toxicity study; beagle; Oral; Feed; dose end: 3 generation; group: reproductive; reproductive / reproductive performance / estrous cycle / abnormal
rat [8] = details: Carcinogenicity, other, Oral, Feed, dose end: 78 week, group: systemic
rat [9] = details: Subchronic oral toxicity in rodents, other, Feed, dose end: 6 week, group: systemic, systemic / in life observation / body weight / body weight
rat [10] = details: Subchronic oral toxicity in rodents, fischer, Feed, dose end: 13 week, group: systemic
rat [11] = details: Prenatal developmental toxicity study, sprague dawley, Oral, Gavage/Intubation, dose end: 15 GD
mouse [12] = details: Subchronic oral toxicity in rodents, b6c3f1, Feed, dose end: 13 week, group: systemic
mouse [13] = details: Prenatal developmental toxicity study, cd1, Oral, Gavage/Intubation, dose end: 15 GD
mouse [14] = details: Prenatal developmental toxicity study, cd1, Oral, Gavage/Intubation, dose end: 14 GD
rat [15] = details: Combined chronic toxicity/carcinogenicity, fischer, Oral, Feed, dose end: 2 year, group: systemic
mouse [16] = details: Combined chronic toxicity/carcinogenicity; b6c3f1; Oral; Feed; dose end: 2 year; group: systemic; systemic / in life observation / body weight / body weight
mouse [17] = details: Subchronic oral toxicity in rodents, b6c3f1, Feed, dose end: 13 week, group: systemic; remark: listed apart in the source
rat [18] = details: Carcinogenicity, fischer, Oral, Feed, dose end: 103 week, group: systemic
rat [19] = details: Subchronic oral toxicity in rodents, fischer, Feed, dose end: 13 week, group: systemic; remark: listed apart in the source
mouse [20] = details: Carcinogenicity, b6c3f1, Oral, Feed, dose end: 103 week, group: systemic
[21] = systemic / in life observation / body weight / body weight gain
[22] = systemic / in life observation / body weight / body weight gain + systemic / in life observation / mortality / mortality
[23] = group: offspring, developmental / offspring survival late / viability index / viability index + developmental / developmental landmark / preputial separation…
[24] = group: parental, systemic / organ weight / adrenal gland / relative to body weight + systemic / organ weight / kidney / relative to body weight + systemic / …
[25] = group: offspring, systemic / pathology microscopic / blood / leukemia + systemic / pathology microscopic / blood vessel / [other] + systemic / pathology …
[26] = group: parental, systemic / pathology microscopic / blood vessel / [other] + systemic / pathology microscopic / lung / carcinoma + systemic / hematology / …
[27] = group: offspring, systemic / in life observation / clinical signs / [other]
[28] = group: parental, systemic / organ weight / liver / relative to body weight
[29] = systemic / in life observation / body weight / body weight
[30] = systemic / in life observation / clinical signs / abdominogenital staining + systemic / in life observation / clinical signs / hunched …
[31] = systemic / in life observation / body weight / body weight + systemic / in life observation / clinical signs / aggressive behavior + …
[32] = group: developmental, developmental / developmental malformation / kidney / hydronephrosis + developmental / developmental malformation / ureter / hydroureter + …
[33] = group: maternal, systemic / in life observation / body weight / body weight + systemic / in life observation / body weight / body weight gain + systemic / in…
[34] = systemic / in life observation / body weight / body weight + systemic / in life observation / clinical signs / fur (altered appearance) + …
[35] = group: developmental, developmental / developmental malformation / mouth / jaw / cleft palate + systemic / in life observation / body weight / fetal weight
[36] = group: maternal, systemic / in life observation / body weight / body weight gain
[37] = group: maternal, systemic / in life observation / body weight / body weight gain + systemic / in life observation / body weight / body weight + systemic / …
[38] = group: developmental, systemic / in life observation / body weight / fetal weight
[39] = group: developmental, systemic / in life observation / body weight / fetal weight + developmental / developmental malformation / mouth / jaw / cleft palate
[40] = group: maternal, systemic / in life observation / body weight / body weight gain + systemic / in life observation / body weight / body weight + systemic / in…
[41] = systemic / pathology microscopic / liver / granuloma
[42] = systemic / pathology microscopic / liver / granuloma + systemic / pathology microscopic / pituitary gland / adenoma
[43] = systemic / pathology microscopic / kidney / hemosiderosis + systemic / pathology microscopic / liver / hemosiderosis + systemic / pathology …
[44] = systemic / pathology microscopic / liver / basophilic focus + systemic / pathology microscopic / liver / eosinophilic focus + systemic / …
[45] = systemic / pathology microscopic / liver / hyperplasia + systemic / pathology microscopic / liver / basophilic focus + systemic / pathology …
[46] = systemic / in life observation / body weight / body weight + systemic / pathology microscopic / kidney / pigmentation + systemic / in life …

## NC(N)=O [Urea]
Rat [1]
  LEL: 225 mg/kg/day
  LOAEL: > 225 mg/kg/day
  NEL: < 225 mg/kg/day
  NOAEL: ≥ 225 mg/kg/day
Mouse [2]
  LEL: 675 mg/kg/day
  LOAEL: > 675 mg/kg/day
  NEL: < 675 mg/kg/day
  NOAEL: ≥ 675 mg/kg/day

## Clc1ccc(C(c2ccc(Cl)cc2)C(Cl)(Cl)Cl)cc1 [p,p'-DDT]
Mouse [3]; [21]
  LEL: 2.7 mg/kg/day
  NEL: < 2.7 mg/kg/day
Mouse [3]; [22]
  LOAEL: > 26.7 mg/kg/day
  NOAEL: ≥ 26.7 mg/kg/day
Rat [4]; [23]
  LEL: 25 mg/kg/day
  LOAEL: > 25 mg/kg/day
  NEL: 3.44 mg/kg/day
  NOAEL: ≥ 25 mg/kg/day
Rat [4]; [24]
  LOAEL: > 25 mg/kg/day
  NEL: 0.343 mg/kg/day
  NOAEL: ≥ 25 mg/kg/day
Rat [4]; group: parental, systemic / organ weight / liver / absolute + systemic / organ weight / liver / relative to body weight + systemic / pathology microscopic / …
  LEL: 3.44 mg/kg/day
Mouse [5]
  LEL: 26.2 mg/kg/day
  LOAEL: > 26.2 mg/kg/day
  NEL: 13.1 mg/kg/day
  NOAEL: ≥ 26.2 mg/kg/day
Mouse [6]; [25]
  LEL: 0.55 mg/kg/day
  LOAEL: > 0.55 mg/kg/day
  NEL: < 0.55 mg/kg/day
  NOAEL: ≥ 0.55 mg/kg/day
Mouse [6]; [26]
  LEL: 0.55 mg/kg/day
  LOAEL: > 0.55 mg/kg/day
  NEL: < 0.55 mg/kg/day
  NOAEL: ≥ 0.55 mg/kg/day
Rat [7]; [27]
  LEL: 10 mg/kg/day
  LOAEL: > 10 mg/kg/day
  NEL: 1 mg/kg/day
  NOAEL: ≥ 10 mg/kg/day
Rat [7]; [28]
  LEL: 10 mg/kg/day
  LOAEL: > 10 mg/kg/day
  NEL: 1 mg/kg/day
  NOAEL: ≥ 10 mg/kg/day
dog
  LEL: 1 mg/kg/day
  LOAEL: > 10 mg/kg/day
  NEL: < 1 mg/kg/day
  NOAEL: ≥ 10 mg/kg/day
Rat [8]; [29]
  LOAEL: 21 mg/kg/day
Rat [8]; systemic / in life observation / body weight / body weight + systemic / in life observation / clinical signs / abdominogenital staining + …
  NOAEL: 10.5 mg/kg/day
Rat [8]; [30]
  LEL: 10.5 mg/kg/day
  NEL: < 10.5 mg/kg/day
Rat [9]
  LEL: 28.1 mg/kg/day
  LOAEL: 28.1 mg/kg/day
  NEL: 15.8 mg/kg/day
  NOAEL: 15.8 mg/kg/day

## CN(C)CCOC(c1ccccc1)c1ccccc1.Cl [Diphenhydramine hydrochloride]
Rat [10]; [29]
  LOAEL: 31.3 mg/kg/day
Rat [10]; [31]
  NEL: 7.8 mg/kg/day
  NOAEL: 15.7 mg/kg/day
Rat [10]; systemic / pathology microscopic / liver / vacuolization cytoplasmic
  LEL: 15.7 mg/kg/day
Rat [11]; [32]
  LEL: 100 mg/kg/day
  LOAEL: > 100 mg/kg/day
  NEL: 50 mg/kg/day
  NOAEL: ≥ 100 mg/kg/day
Rat [11]; [33]
  LEL: 100 mg/kg/day
  LOAEL: > 100 mg/kg/day
  NEL: 50 mg/kg/day
  NOAEL: ≥ 100 mg/kg/day
Mouse [12]; [29]
  LOAEL: 93.8 mg/kg/day
Mouse [12]; [34]
  LEL: 93.8 mg/kg/day
  NEL: 47 mg/kg/day
  NOAEL: 47 mg/kg/day
Mouse [13]; group: developmental, developmental / developmental malformation / mouth / jaw / cleft palate
  LEL: 80 mg/kg/day
Mouse [13]; [35]
  LOAEL: > 160 mg/kg/day
  NEL: 40 mg/kg/day
  NOAEL: ≥ 160 mg/kg/day
Mouse [13]; [36]
  LEL: 80 mg/kg/day
Mouse [13]; [37]
  LOAEL: > 160 mg/kg/day
  NEL: 40 mg/kg/day
  NOAEL: ≥ 160 mg/kg/day
Mouse [14]; [38]
  LEL: 80 mg/kg/day
  NEL: < 80 mg/kg/day
Mouse [14]; [39]
  LOAEL: > 200 mg/kg/day
  NOAEL: ≥ 200 mg/kg/day
Mouse [14]; [36]
  LEL: 80 mg/kg/day
  NEL: < 80 mg/kg/day
Mouse [14]; [40]
  LOAEL: > 200 mg/kg/day
  NOAEL: ≥ 200 mg/kg/day
Rat [15]; [41]
  LEL: 7 mg/kg/day
  NEL: < 7 mg/kg/day
Rat [15]; [42]
  LOAEL: > 15 mg/kg/day
  NOAEL: ≥ 15 mg/kg/day
Mouse [16]
  LEL: 21 mg/kg/day
  LOAEL: 46 mg/kg/day
  NEL: < 21 mg/kg/day
  NOAEL: 21 mg/kg/day

## Oc1ccc2ccccc2c1N=Nc1ccccc1 [C.I. Solvent Yellow 14]
Mouse [17]; [43]
  LOAEL: 300 mg/kg/day
  NEL: 75 mg/kg/day
  NOAEL: 150 mg/kg/day
Mouse [17]; systemic / pathology microscopic / spleen / hemosiderosis
  LEL: 150 mg/kg/day
Rat [18]; [44]
  LOAEL: 25 mg/kg/day
  NOAEL: 12.5 mg/kg/day
Rat [18]; [45]
  LEL: 12.5 mg/kg/day
  NEL: < 12.5 mg/kg/day
Rat [19]; [46]
  NEL: 12.5 mg/kg/day
  NOAEL: 25 mg/kg/day
Rat [19]; systemic / in life observation / body weight / body weight + systemic / pathology microscopic / kidney / pigmentation + systemic / pathology…
  LOAEL: 50 mg/kg/day
Rat [19]; systemic / pathology microscopic / kidney / pigmentation
  LEL: 25 mg/kg/day
Mouse [20]; [29]
  LEL: 75 mg/kg/day
  LOAEL: 150 mg/kg/day
  NEL: < 75 mg/kg/day
Mouse [20]; systemic / in life observation / body weight / body weight + systemic / in life observation / body weight / body weight gain
  NOAEL: 75 mg/kg/day
